Data on one compound can be found in US9339486B2, “Heterocyclic modulators of cannabinoid receptors” (THE CLEVELAND CLINIC FOUNDATION, priority 2008, dated 2016).

Where two headings read alike, the source gives them in different places.

Assay [1] has as its system paclitaxel-induced neuropathic pain model. In words: animal or person. It is filed as in vivo, rat. The note with it: for ED50: Rattus norvegicus, ip. As to the method:
Groups of rats received daily i.p. injections of either vehicle or 1.0 mg/kg paclitaxel daily for four consecutive days for a final cumulative dose of 4 mg/kg; using an injection volume of 1 ml/kg. Polomano, R. C., et al., A Painful Peripheral Neuropathy in the Rat Produced by the Chemotherapeutic Drug, Paclitaxel, Pain, 2001, 94:293-304. The vehicle used in our experiments was the same vehicle used clinically for paclitaxel injections and is composed of a mixture of 10% saline and Cremophor EL® and […]. Baseline responses to mechanical stimulation of the hindpaw (see below) were established on day zero and continued daily until the development of neuropathy was confirmed.
Rats were placed in a compartment with a wire mesh bottom and allowed to acclimate for a minimum of 30 min before testing. Mechanical sensitivity was assessed using a series of Von Frey filaments with logarithmic incremental stiffness (0.41, 0.70, 1.20, 2.00, 3.63, 5.50, 8.50, and 15.1 g) (Stoelting, Wood Dale, Ill.) as previously described, and 50% probability withdrawal thresholds were calculated with the up-down method. Chaplan, S. R., et al., Quantitative Assessment of Tactile Allodynia in the Rat Paw, J. Neurosci. Methods, 1994, 53:55-63; Dixon, W., The Up-and-Down Method for Small Samples, J. Am. Stat. Assoc., 1965, 60:967-78. In brief, beginning with the 2.0-g probe, filaments were applied to the plantar surface of a hind paw for 6-8 s, in an ascending or descending order after a negative or positive withdrawal response, respectively. Six consecutive responses from the first change in the response were used to calculate the withdrawal threshold (in grams). In cases where response thresholds fell outside the range of detection, 15.00 and 0.25 g were, respectively, assigned for continuous negative or positive responses to the limit of stimuli. The percent maximal possible effect (% MPE) was calculated as ([postdrug threshold−baseline threshold]/[cutoff threshold (15 g)−baseline threshold])×100.
To determine sensitivity to noxious heat, rats were placed in plexiglass enclosures on a transparent glass surface maintained at 30° C. and allowed to acclimate for 30 min. A thermal testing apparatus, consisting of a heat-emitting projector lamp and an electronic timer, was used. The device was activated after the lamp is placed directly beneath the planter surface of the hindpaw. The paw withdrawal latency in response to the radiant heat was recorded by a digital timer. A cutoff of 30 s was used to prevent potential tissue damage. After the baseline was measured, three groups of naïve rats (n=10) received 1.0, 3.0, or 10 mg/kg of the compound of Example 3 i.p. Response latencies were determined twice for each rat before drug injection and at 5, 10, 15, 30, 45, 60, 90 and 120 min after IP injection. The percent maximal possible effect (% MPE) was calculated as ([postdrug latency−baseline latency]/[cutoff time (30 s)−baseline latency])×100.
Statistical analyses were carried out using BMDP 2007 (Statistical Solutions, Saugus, Mass., USA) and Graph Pad Prism (version 4.03; Graph Pad Software Inc., San Diego, Calif., USA). Data were analyzed using one-way ANOVA, repeated measures ANOVA, or t-test where appropriate. If ANOVA was significant, Tukey-Kramer post hoc analysis was used for multiple group comparison. Area under the curve (AUC) was calculated using the trapezoidal rule. The results are presented as mean±s.e. mean and were considered significant at P<0.05. Analyses of the dose-response curves and statistics were obtained using the pharmacologic software programs of Tallarida and Murray and included calculation of the ED50 values and their 95% confidence intervals (CI). Tallarida, R. J., et al., Manual of Pharmacologic Calculations With Computer Programs, Second ed. New York: Springer-Verlag, 1987.

For assay [2], the system named is paclitaxel-induced neuropathy. Put plainly: Prevention of neuropathy induced by paclitaxel. It is filed as in vivo, rat. As to the method:
A mixture of saline and CREMOPHOR® ELP 10% was used as vehicle for paclitaxel. It was injected at a concentration of 1.0 mg/kg intraperitoneally to the chemotherapy-treated group of rats on 4 consecutive days for a final cumulative dose of 4 mg/kg to 18 rats.
Paw withdrawal thresholds were determined daily in both hind paws of each animal using calibrated von Frey monofilaments according to an up-down procedure. A series of von Frey filaments with exponentially incremental degrees of stiffness (0.4, 0.7, 1.2, 2.0, 3.6, 5.5, 8.5, and 15.1 g) was used to measure the 50% threshold for both hindpaw withdrawal in awake, unrestrained rats. Chaplan, S. R., Quantitative assessment of tactile allodynia in the rat paw, Journal of Neuroscience Methods, 1994, 53:55-63. Brisk paw withdrawal from the pressure of a filament gently bent against the plantar surface of the paw was defined as a positive response, and absence of withdrawal within 6 sec was considered a negative response. The series of filaments touched the hindpaw in sequential ascending or descending order of stiffness until the threshold of response was crossed (allowing about 10 sec between each increment). Each time the threshold was crossed, the direction of stimulus presentation was reversed and the procedure resumed. Four responses were collected after the first threshold detection, and the 50% withdrawal thresholds was interpolated. In cases in which the response thresholds fall outside the range of detection, 15.1 and 0.25 g were assigned for continuous negative or positive responses, respectively, to the limits of stimulation. FIG. 17 and FIG. 18 show results from these experiments and that peripheral neuropathy started to develop within a few days. FIG. 18 reflects that a plateau was reached by the 10th day.
Group 1 of rats received paclitaxel for four days, as described immediately above in subpart (A) titled “Paclitaxel-induced Neuropathy.” In group 2, a dose of 15 mg/kg of the compound of Example 3, injected intraperitoneally was administered 30 minutes prior to the administration of paclitaxel. In group 3, vehicle of the compound of Example 3 was administered 30 min prior to the administration of paclitaxel. Paw withdrawal thresholds were determined daily in both hind paws of each animal using calibrated von Frey monofilaments according to an up-down procedure as described immediately above in subpart (A) titled “Paclitaxel-induced Neuropathy.” The results are shown in FIG. 17.
FIGS. 19A and 19B show results from an experiment in which three groups of rats were administered 0.25 mL of the compound of Example 3 or the vehicle, a mixture of NMP, propylene glycol, chromophore ELP (25%, 25%, 10%) in sterile water 30 min prior to the administration of paclitaxel. Two of the three experimental groups continued to receive either the vehicle or the compound of Example 3 daily for 11 more days.

On to `CC1(Cc2ccccc2)COc2cc(C(=O)N3CCCCC3)ccc21` (centres unmarked) [Example 3, 3-benzyl-3-methyl-2,3-dihydrobenzofuran-6-carboxylic acid-piperidine amide], for which the 50% effective dose (ED50) (usually the dose that gives a 50% effect, or the effect in half of the subjects) was determined as 13.5 mg/kg in assay [1] (20 min, read-out: ED50 for suppressing thermal hyperalgesia) and 24 mg/kg in assay [1] (read-out: ED50 tactile allodynia (% MPE withdrawal threshold AUC)). In assay [1] (i.p.), the “time of maximal suppression” value is recorded as 20 min. Further, the “effect on paclitaxel-evoked thermal hyperalgesia and mechanical allodynia relative to vehicle” value in assay [1] (i.p., dose-dependent) is “suppressed”. Also, the figures for the “development of paclitaxel-evoked mechano-allodynia” value in assay [2] (15 mg/kg for 4 days only) and in assay [2] (continued 15 mg/kg IP daily) were “did not prevent but significantly prevented the severity” and “completely prevented”, respectively. In assay [2] (administered for 14 days (4 days concomitant with paclitaxel and further 10 days)), the “prevention of paclitaxel-induced neuropathy, share of rats” value is recorded as 100%. Also, the “prevention of paclitaxel-induced neuropathy” value in assay [2] (administered for four days only) is “short-lived prevention”.
